Source: PubChem BioAssay AID256 (DTP/NCI, 2004)
“And” between values parts separate entries of the source, which are not always exact repeats. Equal values may be shown once. Inconclusive results and toxic doses are left out. Rule for the calls: active = survival T/C of 150% or more; inactive = T/C below 125% in these data.

Test system: CD2F1 mice, L1210 leukemia ip, survival T/C
Assay: NCI In Vivo Anticancer Drug Screen. Data for tumor model L1210 Leukemia (intraperitoneal) in CD2F1 (CDF1) mice
Details: endpoint: mean survival time, higher = longer survival
Summary of the method: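 Each value reflects a quotient of treated over vehicle control outcomes in mice with a transplanted tumor.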

[1] = dose: 100.0 mg/kg/injection, schedule: Q01DX009 (ip), vehicle: saline with Tween-80
[2] = dose: 100.0 mg/kg/injection, schedule: Q04DX003 (ip), vehicle: saline with Tween-80
[3] = dose: 200.0 mg/kg/injection, schedule: Q01DX009 (ip), vehicle: saline with Tween-80
[4] = dose: 200.0 mg/kg/injection, schedule: Q04DX003 (ip), vehicle: saline with Tween-80
[5] = dose: 400.0 mg/kg/injection, schedule: Q01DX009 (ip), vehicle: saline with Tween-80
[6] = dose: 400.0 mg/kg/injection, schedule: Q04DX003 (ip), vehicle: saline with Tween-80
[7] = dose: 100.0 mg/kg/injection, schedule: Q01DX001 (ip), vehicle: saline with Tween-80
[8] = dose: 200.0 mg/kg/injection, schedule: Q01DX001 (ip), vehicle: saline with Tween-80
[9] = dose: 400.0 mg/kg/injection, schedule: Q01DX001 (ip), vehicle: saline with Tween-80
[10] = dose: 25.0 mg/kg/injection, schedule: Q04DX003 (ip), vehicle: Klucel (hydroxypropylcellulose) (HPC)
[11] = dose: 50.0 mg/kg/injection, schedule: Q04DX003 (ip), vehicle: Klucel (hydroxypropylcellulose) (HPC)
[12] = dose: 100.0 mg/kg/injection, schedule: Q04DX003 (ip), vehicle: Klucel (hydroxypropylcellulose) (HPC)
[13] = dose: 200.0 mg/kg/injection, schedule: Q04DX003 (ip), vehicle: Klucel (hydroxypropylcellulose) (HPC)
[14] = dose: 50.0 mg/kg/injection, schedule: Q01DX009 (ip), vehicle: saline with Tween-80
[15] = dose: 50.0 mg/kg/injection, schedule: Q04DX002 (ip), vehicle: saline with Tween-80
[16] = dose: 100.0 mg/kg/injection, schedule: Q04DX002 (ip), vehicle: saline with Tween-80
[17] = dose: 100.0 mg/kg/injection, schedule: Q04DX002 (ip), vehicle: saline
[18] = dose: 25.0 mg/kg/injection, schedule: Q04DX002 (ip), vehicle: saline with Tween-80

Measured: T/C

CN1CCCC1CCNc1nc(C(Cl)(Cl)Cl)nc2cc(Cl)ccc12 (configuration not stated)
inactive: [1] 98 % of control | [2] 95 % of control | [3] 98 % of control | [4] 90 % of control | [5] 101 % of control | [6] 100 % of control

NC(=O)C12CCCCC1CCC2 (configuration not stated)
inactive: [2] 103 % of control | [4] 96 % of control | [6] 97 % of control

CNCCNC1=C(Cl)C(=O)c2ccccc2C1=O
inactive: dose: 6.25 mg/kg/injection, schedule: Q04DX003 (ip), vehicle: saline with Tween-80 101 % of control | dose: 12.5 mg/kg/injection, schedule: Q04DX003 (ip), vehicle: saline with Tween-80 101 % of control | dose: 25.0 mg/kg/injection, schedule: Q04DX003 (ip), vehicle: saline with Tween-80 96 % of control and 102 % of control

COC(=O)Cc1cc(O)c(C(=O)OC)c(O)c1C(=O)OC
inactive: [7] 103 % of control | [8] 98 % of control | [9] 98 % of control

Cc1c[nH]c(=O)n(CC(=O)C2CCC3C4CCC5=CC(=O)CCC5(C)C4CCC23C)c1=O (configuration not stated)
inactive: dose: 12.5 mg/kg/injection, schedule: Q04DX003 (ip), vehicle: Klucel (hydroxypropylcellulose) (HPC) 95 % of control | [10] 95 % of control | [11] 97 % of control | [12] 98 % of control | [13] 98 % of control

O=C(O)CCC(=O)CCC(=O)c1ccccc1
inactive: [14] 96 % of control | [1] 98 % of control | [2] 91 % of control | [3] 98 % of control

NC(=O)C(O)(c1ccc(Br)cc1)C(Cl)Cl (configuration not stated)
inactive: dose: 28.5 mg/kg/injection, schedule: Q04DX002 (ip), vehicle: saline with Tween-80 97 % of control | [15] 107 % of control | dose: 57.0 mg/kg/injection, schedule: Q04DX002 (ip), vehicle: saline with Tween-80 95 % of control | [16] 102 % of control | dose: 114.0 mg/kg/injection, schedule: Q04DX002 (ip), vehicle: saline with Tween-80 98 % of control

CC(=O)NC(=O)NC(Cc1ccccc1)c1ccccc1 (configuration not stated)
inactive: [1] 98 % of control | [2] 104 % of control | [3] 92 % of control | [4] 96 % of control | [5] 95 % of control | [6] 108 % of control

Cc1c2c(O)c(O)c(O)cc2c[n+]2ccccc12
inactive: dose: 50.0 mg/kg/injection, schedule: Q01DX009 (ip), vehicle: saline 101 % of control

O=C(CCCl)Oc1ccc(Br)cc1
inactive: [1] 94 % of control | [2] 98 % of control | [3] 96 % of control | [4] 100 % of control | [5] 102 % of control | [6] 96 % of control

Cc1cccc(C)c1NC(=O)c1cccc(Cl)c1
inactive: [1] 94 % of control | [2] 98 % of control | [3] 98 % of control | [4] 96 % of control | [5] 94 % of control | [6] 98 % of control

COC(=O)C1(C(=O)OC)CCCCC1=O
inactive: [1] 98 % of control | [2] 97 % of control | [3] 95 % of control | [4] 94 % of control | [5] 95 % of control | [6] 89 % of control

NC(C=O)C(O)C(O)C(O)CO (configuration not stated)
inactive: [17] 97 % of control | dose: 200.0 mg/kg/injection, schedule: Q04DX002 (ip), vehicle: saline 97 % of control | dose: 400.0 mg/kg/injection, schedule: Q04DX002 (ip), vehicle: saline 97 % of control

CCC12CCCN=C1c1c([nH]c3ccccc13)CC2 (configuration not stated)
inactive: dose: 6.25 mg/kg/injection, schedule: Q04DX002 (ip), vehicle: saline with Tween-80 102 % of control | dose: 12.5 mg/kg/injection, schedule: Q04DX002 (ip), vehicle: saline with Tween-80 104 % of control | [18] 98 % of control

c1ccc(Nc2ccccc2)cc1 (tested in a mixture with another compound)
inactive: [17] 95 % of control

FC(F)(F)Cc1ccccc1
inactive: [7] 103 % of control | [8] 108 % of control | [9] 105 % of control

O=C(CCl)Nc1ccccc1Cl
inactive: [12] 97 % of control | [13] 103 % of control

CC(=O)C(c1ccccc1)C(c1ccccc1)P(=O)(c1ccccc1)c1ccccc1 (configuration not stated)
inactive: [1] 87 % of control | [2] 97 % of control | [3] 90 % of control | [4] 94 % of control | [5] 96 % of control | [6] 87 % of control

O=c1cn[nH]c2cc(Cl)ccc12
inactive: [1] 91 % of control | [2] 100 % of control | [3] 101 % of control | [4] 105 % of control | [5] 92 % of control | [6] 97 % of control

C[S+](C)CC(=O)c1ccccc1O
inactive: [2] 103 % of control | [4] 99 % of control | [6] 100 % of control

Cc1cc(C)c(NC2=NCCS2)cc1C
inactive: [18] 101 % of control | [15] 104 % of control | [16] 101 % of control

ClC1CC2C=CC1C2 (configuration not stated)
inactive: [7] 103 % of control | [8] 100 % of control | [9] 102 % of control

CC(C)NC(=O)CCCN(C(=O)OCc1ccccc1)N(C)C(=O)OCc1ccccc1
inactive: [10] 94 % of control | [11] 91 % of control | [12] 103 % of control | [13] 91 % of control | dose: 400.0 mg/kg/injection, schedule: Q04DX003 (ip), vehicle: Klucel (hydroxypropylcellulose) (HPC) 95 % of control

Cc1ccc2nc(-c3ccc4nc(-c5ccc(N)cc5)sc4c3)sc2c1
inactive: [14] 94 % of control | [1] 97 % of control | [3] 94 % of control

O=C(O)CC(Sc1ccccc1)c1ccccc1 (configuration not stated)
inactive: dose: 100.0 mg/kg/injection, schedule: Q04DX003 (ip), vehicle: other 97 % of control | dose: 200.0 mg/kg/injection, schedule: Q04DX003 (ip), vehicle: other 101 % of control

CCCN(CCC)C(=O)C(=O)OCC
inactive: dose: 6.25 mg/kg/injection, schedule: Q01DX009 (ip), vehicle: saline 90 % of control | dose: 12.5 mg/kg/injection, schedule: Q01DX009 (ip), vehicle: saline 96 % of control | dose: 25.0 mg/kg/injection, schedule: Q01DX009 (ip), vehicle: saline 93 % of control

Nc1nc2c(c(=O)[nH]1)N(C=O)C(CNc1ccc(C(=O)N[C@@H](CCC(=O)O)C(=O)O)cc1)CN2 (some centres not stated)
inactive: dose: 67.0 mg/kg/injection, schedule: Q01DX009 (sc), vehicle: other 105 % of control | dose: 100.0 mg/kg/injection, schedule: Q01DX009 (sc), vehicle: other 101 % of control | dose: 150.0 mg/kg/injection, schedule: Q01DX009 (sc), vehicle: other 101 % of control | dose: 225.0 mg/kg/injection, schedule: Q01DX009 (sc), vehicle: other 108 % of control | dose: 338.0 mg/kg/injection, schedule: Q01DX009 (sc), vehicle: other 103 % of control

COc1cc2ccnc(/C=N\NC(N)=S)c2cc1OC
inactive: dose: 25.0 mg/kg/injection, schedule: Q01DX009 (ip), vehicle: saline with Tween-80 93 % of control | [14] 96 % of control | [1] 96 % of control | [3] 95 % of control

O=C([O-])CC[n+]1ccn(CCC(=O)O)c1
inactive: dose: 100.0 mg/kg/injection, schedule: Q04DX003 (ip), vehicle: saline 109 % of control | dose: 200.0 mg/kg/injection, schedule: Q04DX003 (ip), vehicle: saline 103 % of control | dose: 400.0 mg/kg/injection, schedule: Q04DX003 (ip), vehicle: saline 111 % of control
